From US8809341B2, “2,4-pyrimidinediamine compounds and uses as anti-proliferative agents” (Rigel Pharmaceuticals, Inc., priority 2003, dated 2014)
Like-named read-outs stand apart in the source and are kept apart here.

Experiments:
Type in all cases: cell-based
[1] = tested on: HCT116; assay: in vitro antiproliferation assay, HCT116 (colon)
Method: The IC50 values of various compounds against a various different tumor cell lines were determined using standard in vitro antiproliferation assays. The tumor cell lines tested were as follows: A549 (lung); H1299 (lung), ACHN (kidney/p53 wt), CAKI (renal cell carcinoma), NCI-H460 (lung); HCT116 (colon/p53w0; HELA (cervix/p53 wt), HUH7 (liver/p53 wt), HUVEC (primary endothelial), LNCAP (prostate), HT-29 (colon); MCF-7 (breast); MCF-7 (breast/ER positive), MDA MB435S (breast); MDA MB231 (breast/ER negative), DU145 (prostate); BxPC-3 (pancreatic); SKOV-3 (ovarian); HepG2 (hepatic), NDHF primary normal human dermal fibroblast), SKMEL28 (breast/p53mut), SKMEL5 (breast/p53 wt), U20S (bone) and PC3 (prostate). […] A blank indicates the specified compound was not tested against the specified cell line.
Many of the compounds were tested against other cell lines. Their activity is reported in TABLE 15, below, where +”, “−”, “−/+” or “+/−” values are as described for TABLES 1-14. Where the cell line includes a value in a parenthetical, the value indicates the seeding density at which the assay was performed

[2] = tested on: A549 cells; assay: in vitro antiproliferation assay, A549 (lung); details: A549 (lung) cells
Method in brief: (§1)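 IC50 values came from standard antiproliferation testing in cultured tumour cells; the A549 and H1299 lines are of lung origin.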

[3] = tested on: H1299 cells; assay: in vitro antiproliferation assay, H1299 (lung); details: H1299 (lung) cells
Method in brief: as §1

[4] = HCT116 (colon), read-out: HCT116
[5] = in vitro antiproliferation, Table 4, compounds with no designated stereochemistry tested as racemate
[6] = Table 5, in vitro antiproliferation
[7] = Table 7, in vitro antiproliferation, colon cells, read-out: HTC116
[8] = Table 7, in vitro antiproliferation

Row | SMILES | IC50 [1, 4] [µM] | IC50 [2] [µM] | IC50 [3] [µM] | also measured
1 | CNC(=O)COc1cccc(Nc2ncc(F)c(Nc3ccc4c(c3)NC(=O)[C@H](C)O4)n2)c1 [compound 300] | ≤ 20 | – | – | IC50 [2, 5]: ≤ 20 µM
2 | COc1cc(Nc2ncc(F)c(Nc3ccc4c(c3)NC(=O)C(C)(C)O4)n2)cc(OC)c1 [compound 305] | ≤ 20 | – | – | IC50 [2, 5]: ≤ 20 µM
3 | COc1c(Cl)cc(Nc2ncc(F)c(Nc3ccc4c(c3)NC(=O)C(C)(C)O4)n2)cc1Cl [compound 307] | ≤ 20 | – | – | IC50 [2, 5]: ≤ 20 µM
4 | COc1cc(Nc2ncc(F)c(Nc3ccc4c(c3)NC(=O)C(C)(C)O4)n2)cc(C(F)(F)F)c1 [compound 309] | ≤ 20 | – | – | IC50 [2, 5]: ≤ 20 µM
5 | Cc1cc(C)cc(Nc2ncc(F)c(Nc3ccc4c(c3)NC(=O)C(C)(C)O4)n2)c1 [compound 310] | ≤ 20 | – | – | IC50 [2, 5]: ≤ 20 µM
6 | CC1(C)Oc2ccc(Nc3nc(Nc4cccc(O)c4)ncc3F)cc2NC1=O [compound 356] | > 20 | – | – | –
7 | Cc1cc(Nc2ncc(F)c(Nc3ccc4c(c3)NC(=O)C(C)(C)O4)n2)cc(Cl)c1O [compound 358] | < 20 | – | – | –
8 | CC(=O)N1CCN(c2ccc(Nc3ncc(F)c(Nc4ccc5c(n4)NC(=O)CO5)n3)cc2)CC1 [compound 419] | ≤ 20 | – | – | –
9 | CC(=O)N1CCN(c2ccc(Nc3ncc(F)c(Nc4ccc5c(n4)NC(=O)C(C)(C)O5)n3)cc2)CC1 [compound 432] | ≤ 20 | – | – | –
10 | CN1CCN(c2ccc(Nc3ncc(F)c(Nc4ccc5c(n4)NC(=O)CO5)n3)cc2)CC1 [compound 435] | ≤ 20 | – | – | –
11 | CN1CCN(c2ccc(Nc3ncc(F)c(Nc4ccc5c(n4)NC(=O)C(C)(C)O5)n3)cc2)CC1 [compound 436] | ≤ 20 | – | – | –
12 | O=C(COc1cccc(Nc2ncc(F)c(Nc3ccc4c(c3)OCCO4)n2)c1)N1CCNCC1 [compound 497] | > 20 | – | – | IC50 [2, 6]: ≤ 20 µM
13 | NC(=O)COc1cccc(Nc2ncc(F)c(Nc3ccc4c(c3)OCCO4)n2)c1 [compound 504] | ≤ 20 | – | – | IC50 [2, 6]: ≤ 20 µM
14 | COc1cc(Nc2ncc(F)c(Nc3ccc4c(c3)OCCO4)n2)cc(OC)c1OC [compound 506] | > 20 | – | – | IC50 [2, 6]: ≤ 20 µM
15 | Oc1c(Cl)cc(Nc2ncc(F)c(Nc3ccc4c(c3)OCCO4)n2)cc1Cl [compound 507] | > 20 | – | – | IC50 [2, 6]: ≤ 20 µM
16 | Cc1cc(C)cc(Nc2ncc(F)c(Nc3ccc4c(c3)OCCO4)n2)c1 [compound 527] | ≤ 20 | – | – | IC50 [2, 6]: ≤ 20 µM
17 | Cc1cc(Nc2ncc(F)c(Nc3ccc4c(c3)OCCO4)n2)cc(C)c1Cl [compound 528] | ≤ 20 | – | – | IC50 [2, 6]: ≤ 20 µM
18 | OCCOc1cccc(Nc2ncc(F)c(Nc3ccc4c(c3)OCCCO4)n2)c1 [compound 581] | ≤ 20 | – | – | IC50 [2, 6]: ≤ 20 µM
19 | CC(C)Oc1cccc(Nc2nc(Nc3ccc4oc(C(=O)N5CCOCC5)cc4c3)ncc2F)c1 [compound 625] | – | – | – | IC50 [1, 7]: ≤ 20 µM; IC50 [2, 8]: ≤ 20 µM

Row | SMILES | IC50 [1, 4] [µM] | IC50 [2] [µM] | IC50 [3] [µM] | also measured
20 | O=C(c1cc2cc(Nc3ncc(F)c(Nc4ccc5c(c4)OCCO5)n3)ccc2o1)N1CCOCC1 [compound 626] | ≤ 20 | – | – | IC50 [1, 7]: ≤ 20 µM; IC50 [2, 8]: < 20 µM
21 | CNC(=O)c1cc2cc(Nc3ncc(F)c(Nc4ccc5c(c4)OCCO5)n3)ccc2o1 [compound 629] | ≤ 20 | – | – | IC50 [1, 7]: ≤ 20 µM; IC50 [2, 8]: ≤ 20 µM
22 | O=C(NCCO)c1cc2cc(Nc3ncc(F)c(Nc4ccc5c(c4)OCCO5)n3)ccc2o1 [compound 631] | ≤ 20 | – | – | IC50 [1, 7]: ≤ 20 µM; IC50 [2, 8]: ≤ 20 µM
23 | O=C(c1cc2cc(Nc3ncc(F)c(Nc4ccc5c(c4)OCCO5)n3)ccc2o1)N1CCNCC1 [compound 632] | ≤ 20 | – | – | IC50 [1, 7]: ≤ 20 µM; IC50 [2, 8]: ≤ 20 µM
24 | O=C(c1cc2cc(Nc3ncc(F)c(Nc4cccc(O)c4)n3)ccc2o1)N1CCNCC1 [compound 633] | ≤ 20 | – | – | IC50 [1, 7]: ≤ 20 µM; IC50 [2, 8]: ≤ 20 µM
25 | COC(=O)c1cc2cc(Nc3ncc(F)c(Nc4cccc(O)c4)n3)ccc2o1 [compound 636] | > 20 | – | – | IC50 [1, 7]: > 20 µM; IC50 [2, 8]: ≤ 20 µM
26 | CCOC(=O)c1cc2cccc(Nc3ncc(F)c(Nc4ccc5c(c4)OCCO5)n3)c2[nH]1 [compound 647] | ≤ 20 | – | – | IC50 [1, 7]: ≤ 20 µM; IC50 [2, 8]: ≤ 20 µM
27 | COc1ccc(Nc2nc(Nc3ccc4cnn(C(C)(C)CC5CCCCC5)c4c3)ncc2F)cc1Cl [compound 1094] | – | ≤ 20 | ≤ 20 | –
28 | CC(C)(CC1CCCCC1)n1ncc2ccc(Nc3ncc(F)c(Nc4ccc(Cl)c(Cl)c4)n3)cc21 [compound 1095] | – | ≤ 20 | ≤ 20 | –
29 | CC1(C)Oc2ccc(Nc3nc(Nc4ccc5cnn(C(C)(C)CC6CCCCC6)c5c4)ncc3F)cc2NC1=O [compound 1096] | – | ≤ 20 | ≤ 20 | –
30 | COc1cc(Nc2nc(Nc3ccc4cnn(C(C)(C)CC5CCCCC5)c4c3)ncc2F)ccc1F [compound 1097] | – | > 20 | ≤ 20 | –
31 | COc1ccc(Nc2nc(Nc3ccc4c(cnn4C(C)(C)CC4CCC4)c3)ncc2F)cc1Cl [compound 1098] | – | > 20 | ≤ 20 | –
32 | CC(C)(CC1CCC1)n1ncc2cc(Nc3ncc(F)c(Nc4ccc(Cl)c(Cl)c4)n3)ccc21 [compound 1099] | – | ≤ 20 | ≤ 20 | –
33 | CC1(C)Oc2ccc(Nc3nc(Nc4ccc5c(cnn5C(C)(C)CC5CCC5)c4)ncc3F)cc2NC1=O [compound 1100] | – | ≤ 20 | ≤ 20 | –
34 | COc1cc(Nc2nc(Nc3ccc4c(cnn4C(C)(C)CC4CCC4)c3)ncc2F)ccc1F [compound 1101] | – | ≤ 20 | ≤ 20 | –
35 | COc1ccc(Nc2nc(Nc3ccc4cnn(C(C)(C)CC5CCC5)c4c3)ncc2F)cc1Cl [compound 1102] | – | ≤ 20 | ≤ 20 | –
36 | CC1(C)Oc2ccc(Nc3nc(Nc4ccc5cnn(C(C)(C)CC6CCC6)c5c4)ncc3F)cc2NC1=O [compound 1104] | – | ≤ 20 | ≤ 20 | –
37 | COc1cc(Nc2nc(Nc3ccc4cnn(C(C)(C)CC5CCC5)c4c3)ncc2F)ccc1F [compound 1105] | – | ≤ 20 | ≤ 20 | –
38 | COc1ccc(Nc2nc(Nc3ccc4c(cnn4C(C)(C)CC4CC4)c3)ncc2F)cc1Cl [compound 1106] | – | ≤ 20 | ≤ 20 | –

Row | SMILES | IC50 [1, 4] [µM] | IC50 [2] [µM] | IC50 [3] [µM] | also measured
39 | CC(C)(CC1CC1)n1ncc2cc(Nc3ncc(F)c(Nc4ccc(Cl)c(Cl)c4)n3)ccc21 [compound 1107] | – | > 20 | > 20 | –
40 | COc1cc(Nc2nc(Nc3ccc4c(cnn4C(C)(C)CC4CC4)c3)ncc2F)ccc1F [compound 1109] | – | ≤ 20 | ≤ 20 | –
41 | COc1ccc(Nc2nc(Nc3ccc4cnn(C(C)(C)CC5CC5)c4c3)ncc2F)cc1Cl [compound 1110] | – | ≤ 20 | ≤ 20 | –
42 | CC(C)(CC1CC1)n1ncc2ccc(Nc3ncc(F)c(Nc4ccc(Cl)c(Cl)c4)n3)cc21 [compound 1111] | – | ≤ 20 | ≤ 20 | –
43 | CC1(C)Oc2ccc(Nc3nc(Nc4ccc5cnn(C(C)(C)CC6CC6)c5c4)ncc3F)cc2NC1=O [compound 1112] | – | ≤ 20 | ≤ 20 | –
44 | COc1cc(Nc2nc(Nc3ccc4cnn(C(C)(C)CC5CC5)c4c3)ncc2F)ccc1F [compound 1113] | – | ≤ 20 | ≤ 20 | –
45 | COc1cc(C)c(Nc2ncc(F)c(Nc3ccc4c(c3)NC(=O)[C@@H](C)O4)n2)cc1Cl [compound 1139] | – | – | – | IC50 ([2]; Homo sapiens): ≤ 20 µM; IC50 ([3]; Homo sapiens, NCI-H1299): > 20 µM
46 | COc1cc(C)c(Nc2ncc(F)c(Nc3ccc4c(c3)NC(=O)[C@H](C)O4)n2)cc1Cl [compound 1140] | – | – | – | IC50 ([2]; Homo sapiens): > 20 µM; IC50 ([3]; Homo sapiens, NCI-H1299): > 20 µM
47 | COc1cc(OC)c(Nc2ncc(F)c(Nc3ccc4c(c3)NC(=O)[C@H](C)O4)n2)cc1Cl [compound 1141] | – | – | – | IC50 ([2]; Homo sapiens): > 20 µM; IC50 ([3]; Homo sapiens, NCI-H1299): > 20 µM
48 | COc1cc(C)c(Nc2ncc(F)c(Nc3ccc4c(c3)NC(C)(C)CO4)n2)cc1Cl [compound 1142] | – | – | – | IC50 ([2]; Homo sapiens): ≤ 20 µM; IC50 ([3]; Homo sapiens, NCI-H1299): > 20 µM
49 | O=C1Nc2ccc(Nc3nc(Nc4cccc(-c5ncco5)c4)ncc3F)cc2OC1CCO (stereo not shown) [compound 1145] | – | – | – | IC50 ([2]; Homo sapiens): ≤ 20 µM; IC50 ([3]; Homo sapiens, NCI-H1299): ≤ 20 µM
50 | Cc1ccc(CNc2ncc(F)c(Nc3ccc4c(c3)OCCO4)n2)cc1Cl [compound 1146] | – | – | – | IC50 ([2]; Homo sapiens): ≤ 20 µM; IC50 ([3]; Homo sapiens, NCI-H1299): > 20 µM
51 | CC(Nc1ncc(F)c(Nc2ccc3c(c2)OCCO3)n1)c1ccccc1 (stereo not shown) [compound 1147] | – | – | – | IC50 ([2]; Homo sapiens): ≤ 20 µM; IC50 ([3]; Homo sapiens, NCI-H1299): ≤ 20 µM
52 | COc1ccc(Nc2nc(Nc3cc(OC)c(Cl)cc3OC)ncc2F)cc1Cl [compound 1158] | – | – | – | IC50 ([2]; Homo sapiens): ≤ 20 µM; IC50 ([3]; Homo sapiens, NCI-H1299): ≤ 20 µM
53 | COc1cc(Nc2nc(Nc3cc(OC)c(Cl)cc3OC)ncc2F)cc(OC)c1 [compound 1159] | – | – | – | IC50 ([2]; Homo sapiens): ≤ 20 µM; IC50 ([3]; Homo sapiens, NCI-H1299): ≤ 20 µM
54 | CNc1ncc(F)c(Nc2cc(Cl)c(OC)c(Cl)c2)n1 [compound 1160] | – | – | – | IC50 ([2]; Homo sapiens): ≤ 20 µM; IC50 ([3]; Homo sapiens, NCI-H1299): ≤ 20 µM
55 | COc1cc(C(N)=O)c(Nc2ncc(F)c(N(C)C3CCC3)n2)cc1OC(=O)c1ccccc1 [compound 1162] | – | – | – | IC50 ([2]; Homo sapiens): ≤ 20 µM; IC50 ([3]; Homo sapiens, NCI-H1299): ≤ 20 µM
56 | COc1cc(C(N)=O)c(Nc2ncc(F)c(NC3CCCC3)n2)cc1OC(=O)c1ccccc1 [compound 1163] | – | – | – | IC50 ([2]; Homo sapiens): ≤ 20 µM; IC50 ([3]; Homo sapiens, NCI-H1299): ≤ 20 µM
57 | COc1cc(C(N)=O)c(Nc2ncc(F)c(NC3CCCCC3)n2)cc1OC(=O)c1ccccc1 [compound 1164] | – | – | – | IC50 ([2]; Homo sapiens): ≤ 20 µM; IC50 ([3]; Homo sapiens, NCI-H1299): ≤ 20 µM
